Source: ChEMBL document CHEMBL1155068, “Balancing oral exposure with Cyp3A4 inhibition in benzimidazole-based IGF-IR inhibitors” (Bioorg Med Chem Lett, 2008)

assay: Metabolic stability in mouse liver microsomes; type: ADME, Microsome

| Compound | Stability |
| --- | --- |
| COCCOC(=O)N1CCN(C2CCN(c3cc(C)c4nc(-c5c(NC[C@@H](O)c6cccc(Cl)c6)cc[nH]c5=O)[nH]c4c3)CC2)CC1 | < 0.1 nmol/min/mg |
| Cc1cc(N2CCC(N3CCN(C)CC3)CC2)cc2[nH]c(-c3c(NC[C@@H](O)c4cccc(Cl)c4)cc[nH]c3=O)nc12 | < 0.1 nmol/min/mg |
| Cc1cc(N2CCC(N3CCN(C(=O)N4CCN(C)CC4)CC3)CC2)cc2[nH]c(-c3c(NC[C@@H](O)c4cccc(Cl)c4)cc[nH]c3=O)nc12 | < 0.1 nmol/min/mg |
| Cc1cc(N2CCC(N3CCN(C(=O)N4CCOCC4)CC3)CC2)cc2[nH]c(-c3c(NC[C@@H](O)c4cccc(Cl)c4)cc[nH]c3=O)nc12 | < 0.1 nmol/min/mg |
| COCCOC1CCN(c2cc(C)c3nc(-c4c(NC[C@@H](O)c5cccc(Cl)c5)cc[nH]c4=O)[nH]c3c2)CC1 | 0.1 nmol/min/mg |
| Cc1cc(N2CCC(OCCO)CC2)cc2[nH]c(-c3c(NC[C@@H](O)c4cccc(Cl)c4)cc[nH]c3=O)nc12 | > 0.2 nmol/min/mg |
| Cc1cc(N2CCC3(CC2)OCCO3)cc2[nH]c(-c3c(NC[C@@H](O)c4cccc(Cl)c4)cc[nH]c3=O)nc12 | 0.1 nmol/min/mg |
| Cc1cc(N2CCC(N3CCN(C(=O)OCCO)CC3)CC2)cc2[nH]c(-c3c(NC[C@@H](O)c4cccc(Cl)c4)cc[nH]c3=O)nc12 | < 0.1 nmol/min/mg |
| CC(=O)N1CCN(C2CCN(c3cc(C)c4nc(-c5c(NC[C@@H](O)c6cccc(Cl)c6)cc[nH]c5=O)[nH]c4c3)CC2)CC1 | < 0.1 nmol/min/mg |
| Cc1cc(N2CCC(N3CCN(C(=O)C4CC4)CC3)CC2)cc2[nH]c(-c3c(NC[C@@H](O)c4cccc(Cl)c4)cc[nH]c3=O)nc12 | < 0.1 nmol/min/mg |

More lines, now with the values ahead:

| Stability | Compound |
| --- | --- |
| 0.1 nmol/min/mg | Cc1cc(N2CCOCC2)cc2[nH]c(-c3c(NC[C@@H](O)c4cccc(Cl)c4)cc[nH]c3=O)nc12 |
| 0.1 nmol/min/mg | Cc1cc(N2CCC(NC(=O)C3CC3)CC2)cc2[nH]c(-c3c(NC[C@@H](O)c4cccc(Cl)c4)cc[nH]c3=O)nc12 |
| 0.1 nmol/min/mg | Cc1cc(N2CCC(N3CCOCC3)CC2)cc2[nH]c(-c3c(NC[C@@H](O)c4cccc(Cl)c4)cc[nH]c3=O)nc12 |
| < 0.1 nmol/min/mg | COCC(=O)N1CCN(C2CCN(c3cc(C)c4nc(-c5c(NC[C@@H](O)c6cccc(Cl)c6)cc[nH]c5=O)[nH]c4c3)CC2)CC1 |
| < 0.1 nmol/min/mg | Cc1cc(N2CCC(N3C[C@@H](C)O[C@@H](C)C3)CC2)cc2[nH]c(-c3c(NC[C@@H](O)c4cccc(Cl)c4)cc[nH]c3=O)nc12 |
| < 0.1 nmol/min/mg | COCCOCC(=O)N1CCN(C2CCN(c3cc(C)c4nc(-c5c(NC[C@@H](O)c6cccc(Cl)c6)cc[nH]c5=O)[nH]c4c3)CC2)CC1 |
| < 0.1 nmol/min/mg | COC(=O)N1CCN(C2CCN(c3cc(C)c4nc(-c5c(NC[C@@H](O)c6cccc(Cl)c6)cc[nH]c5=O)[nH]c4c3)CC2)CC1 |
| > 0.2 nmol/min/mg | COC1CCN(c2cc(C)c3nc(-c4c(NC[C@@H](O)c5cccc(Cl)c5)cc[nH]c4=O)[nH]c3c2)CC1 |
| 0.1 nmol/min/mg | Cc1cc(N2CCC(O)CC2)cc2[nH]c(-c3c(NC[C@@H](O)c4cccc(Cl)c4)cc[nH]c3=O)nc12 |
| 0.1 nmol/min/mg | COC(=O)NC1CCN(c2cc(C)c3nc(-c4c(NC[C@@H](O)c5cccc(Cl)c5)cc[nH]c4=O)[nH]c3c2)CC1 |
